Values joined by “and” are separate entries in the source; they are usually repeats but may differ in a detail not shown here. Equal values may be shown once.
Test system: Trypanosoma rhodesiense
Experiment: In vivo trypanocidal activity in infected mice (protocol based on Rane et al.)
Set-up: Activity at dosage, value in parentheses (increase in survival): unit not given here
Description: The compounds of the present invention were evaluated biologically in vivo with groups of 5 mice at various dose levels. Unless otherwise indicated, the data are for subcutaneous administration. Dose levels marked with an asterisk are for peritoneal administration in a HEC+T medium. In addition, Table 2 present results of peritoneal administration with substituted quanylhydrazones. The biological evaluation was done according to a standard protocol based on the method described by Rane et al., Amer. J. Trop. Med Hyg. 25:395 (1976). […]

[1] = 106* mg/kg, peritoneal in HEC+T medium (Table I)
[2] = 424* mg/kg, peritoneal in HEC+T medium (Table I)
[3] = 212* mg/kg, peritoneal in HEC+T medium (Table I)

With `CC(=O)Nc1ccc(-c2cn3ccccc3[n+]2C)cc1` [BJ36718] the Increase in survival (53 mg/kg, subcutaneous) was 8.0 days, the “Trypanocidal activity, cures” value (53 mg/kg, subcutaneous) was 4/5 and the Increase in survival (106 mg/kg, subcutaneous) was 4.4 days. For the same compound, the “Trypanocidal activity, cures” value (212 mg/kg, subcutaneous) was 3/5 and 4/5, the Increase in survival [1] was 7.0 days and the “Trypanocidal activity, cures” value [1] was 7/10. For the same compound, the Increase in survival [2] was 11.0 days and the “Trypanocidal activity, cures” value [2] was 8/10.

With `CC(=O)Nc1ccc(-c2cn3c([n+]2C)CCCC3)cc1` [BJ51911] the Increase in survival (26.5 mg/kg, subcutaneous) was 1.2 days, the “Trypanocidal activity, cures” value (26.5 mg/kg, subcutaneous) was 1/10 and the Increase in survival (53 mg/kg, subcutaneous) was 6.4 days. The Increase in survival (106 mg/kg, subcutaneous) was 7.4 days and the “Trypanocidal activity, cures” value (106 mg/kg, subcutaneous) was 3/10.

With `C=CC[n+]1c(-c2ccc(NC(C)=O)cc2)cn2ccccc21` [BJ58296] the Increase in survival (26.5 mg/kg, subcutaneous) was 5.0 days and the “Trypanocidal activity, cures” value (26.5 mg/kg, subcutaneous) was 7/10.

`CC(=O)Nc1ccc(-c2cn3ccc4ccccc4c3[n+]2C)cc1` [BJ83235] was tested, and the Increase in survival (53 mg/kg, subcutaneous) was 1.7 days, the “Trypanocidal activity, cures” value (53 mg/kg, subcutaneous) was 1/5 and the Increase in survival (212 mg/kg, subcutaneous) was 2.9 days. For the same compound, the “Trypanocidal activity, cures” value (212 mg/kg, subcutaneous) was 4/5.

For `CC(=O)Nc1ccc(-c2cn3c4ccccc4ccc3[n+]2C)cc1` [BJ83244], the Increase in survival (212 mg/kg, subcutaneous) was 8.4 days and the “Trypanocidal activity, cures” value (212 mg/kg, subcutaneous) was 3/5.

`CC(=O)Nc1ccc(-c2cn3cc(I)ccc3[n+]2C)cc1` [BJ83306] was tested, and the Increase in survival (106 mg/kg, subcutaneous) was 2.3 days, the “Trypanocidal activity, cures” value (106 mg/kg, subcutaneous) was 3/10 and the Increase in survival (212 mg/kg, subcutaneous) was 3.9 days. The “Trypanocidal activity, cures” value (212 mg/kg, subcutaneous) was 1/5, the Increase in survival (424 mg/kg, subcutaneous) was 6.5 days and the “Trypanocidal activity, cures” value (424 mg/kg, subcutaneous) was 4/10.

For `CC(=O)Nc1ccc(-c2cn3ccccc3[n+]2C)cc1` [BJ83315], the Increase in survival (106 mg/kg, subcutaneous) was 3.7 days, the Increase in survival (212 mg/kg, subcutaneous) was 6.4 days and the “Trypanocidal activity, cures” value (212 mg/kg, subcutaneous) was 3/5. The Increase in survival (424 mg/kg, subcutaneous) was 2.9 days and the “Trypanocidal activity, cures” value (424 mg/kg, subcutaneous) was 9/10.

`CC(=O)Nc1ccc(-c2cn3cc(C)ccc3[n+]2C)cc1` [BJ84938] was tested, and the Increase in survival (106 mg/kg, subcutaneous) was 1.3 days, the “Trypanocidal activity, cures” value (106 mg/kg, subcutaneous) was 1/10 and the Increase in survival (212 mg/kg, subcutaneous) was 5.9 days. For the same compound, the “Trypanocidal activity, cures” value (212 mg/kg, subcutaneous) was 1/5, the Increase in survival (424 mg/kg, subcutaneous) was 8.5 days and the “Trypanocidal activity, cures” value (424 mg/kg, subcutaneous) was 7/10.

For `C[n+]1c(-c2ccc(C(N)=NO)cc2)cn2ccccc21` [BJ84974], the Increase in survival (13.3 mg/kg, subcutaneous) was 3.1 days, the Increase in survival (26.5 mg/kg, subcutaneous) was 1.6 days and the “Trypanocidal activity, cures” value (26.5 mg/kg, subcutaneous) was 2/10. For the same compound, the “Trypanocidal activity, cures” value (53 mg/kg, subcutaneous) was 5/5, the Increase in survival (106 mg/kg, subcutaneous) was 9.9 days and the “Trypanocidal activity, cures” value (106 mg/kg, subcutaneous) was 9/10. The “Trypanocidal activity, cures” value (212 mg/kg, subcutaneous) was 5/5.

`CC(=O)Nc1ccc(-c2cn3c(C)cc(C)cc3[n+]2C)cc1` [BJ90703] was tested, and the Increase in survival (26 mg/kg, subcutaneous) was 8.9 days, the “Trypanocidal activity, cures” value (26 mg/kg, subcutaneous) was 1/5 and the Increase in survival (106 mg/kg, subcutaneous) was 2.9 days. The “Trypanocidal activity, cures” value (106 mg/kg, subcutaneous) was 4/5, the Increase in survival (424 mg/kg, subcutaneous) was 9.4 days and the “Trypanocidal activity, cures” value (424 mg/kg, subcutaneous) was 3/5. The Increase in survival [2] was 3.4 days and the “Trypanocidal activity, cures” value [2] was 1/5.

In the case of `C[n+]1c(-c2ccc(C=NO)cc2)cn2ccccc21` [BJ90712], the Increase in survival (106 mg/kg, subcutaneous) is reported as 4.2 days and the “Trypanocidal activity, cures” value (106 mg/kg, subcutaneous) is reported as 2/5.

For `C[n+]1c(-c2ccc(C=NNC(N)=S)cc2)cn2ccccc21` [BJ90721], the Increase in survival (26 mg/kg, subcutaneous) was 4.4 days, the Increase in survival (53 mg/kg, subcutaneous) was 7.8 days and the “Trypanocidal activity, cures” value (53 mg/kg, subcutaneous) was 1/5. The Increase in survival (106 mg/kg, subcutaneous) was 7.5 days, the “Trypanocidal activity, cures” value (106 mg/kg, subcutaneous) was 3/5 and the Increase in survival (212 mg/kg, subcutaneous) was 18.0 days. For the same compound, the “Trypanocidal activity, cures” value (212 mg/kg, subcutaneous) was 4/5, the “Trypanocidal activity, cures” value (424 mg/kg, subcutaneous) was 5/5 and the Increase in survival [2] was 1.9 days. The “Trypanocidal activity, cures” value [2] was 1/10.

`C[n+]1c(-c2ccc(C=NNC(N)=O)cc2)cn2ccccc21` [BJ90730] was tested, and the Increase in survival (26 mg/kg, subcutaneous) was 7.7 days, the “Trypanocidal activity, cures” value (26 mg/kg, subcutaneous) was 1/5 and the Increase in survival (106 mg/kg, subcutaneous) was 10.9 days. For the same compound, the “Trypanocidal activity, cures” value (106 mg/kg, subcutaneous) was 4/5, the Increase in survival [1] was 1.9 days and the “Trypanocidal activity, cures” value [1] was 1/10. For the same compound, the Increase in survival [2] was 4.8 days and the “Trypanocidal activity, cures” value [2] was 3/10.

For `C[n+]1c(-c2ccc(C=NNC(=N)N)cc2)cn2ccccc21` [BJ90749], the Increase in survival (0.21 mg/kg, subcutaneous) was 2.5 days, the “Trypanocidal activity, cures” value (0.21 mg/kg, subcutaneous) was 1/5 and the Increase in survival (0.42 mg/kg, subcutaneous) was 5.4 days. For the same compound, the “Trypanocidal activity, cures” value (0.42 mg/kg, subcutaneous) was 2/10, the Increase in survival (0.83 mg/kg, subcutaneous) was 6.2 days and the “Trypanocidal activity, cures” value (0.83 mg/kg, subcutaneous) was 8/10. For the same compound, the “Trypanocidal activity, cures” value (1.6 mg/kg, subcutaneous) was 10/10, the “Trypanocidal activity, cures” value (3.3 mg/kg, subcutaneous) was 5/5 and the “Trypanocidal activity, cures” value (6.6 mg/kg, subcutaneous) was 5/5. The “Activity at dosage, value in parentheses (increase in survival)” value (13 mg/kg, peritoneal (Table 2)) was 4.0 and the “Trypanocidal activity, cures” value (13.3 mg/kg, subcutaneous) was 10/10.

`COC(=O)c1ccc2n(c1)cc(-c1ccc(NC(C)=O)cc1)[n+]2C` [BJ90758] was tested, and the Increase in survival (106 mg/kg, subcutaneous) was 4.2 days, the Increase in survival (424 mg/kg, subcutaneous) was 4.2 days and the “Trypanocidal activity, cures” value (424 mg/kg, subcutaneous) was 2/10.

`C[n+]1c(-c2ccc(C=NNc3ncn[nH]3)cc2)cn2ccsc21` [BK2403S] was tested, and the Increase in survival (6.65 mg/kg, subcutaneous) was 5.0 days, the “Trypanocidal activity, cures” value (6.65 mg/kg, subcutaneous) was 4/5 and the Increase in survival (13.3 mg/kg, subcutaneous) was 5.0 days. For the same compound, the “Trypanocidal activity, cures” value (13.3 mg/kg, subcutaneous) was 6/10, the Increase in survival (26.5 mg/kg, subcutaneous) was 7.3 days and the “Trypanocidal activity, cures” value (26.5 mg/kg, subcutaneous) was 12/15. For the same compound, the Increase in survival (53 mg/kg, subcutaneous) was 12.5 days, the “Trypanocidal activity, cures” value (53 mg/kg, subcutaneous) was 3/5 and the Increase in survival (106 mg/kg, subcutaneous) was 7.7 days. For the same compound, the “Trypanocidal activity, cures” value (106 mg/kg, subcutaneous) was 7/10, the Increase in survival (212 mg/kg, subcutaneous) was 5.0 days and the “Trypanocidal activity, cures” value (212 mg/kg, subcutaneous) was 3/5.

`C=CC[n+]1c(-c2ccc(NC(C)=O)cc2)cn2cc(C)ccc21` [BK02557] was tested, and the Increase in survival [2] was 3.8 days and the “Trypanocidal activity, cures” value [2] was 2/10.

`C=CC[n+]1c(-c2ccc(N(CC)C(C)=O)cc2)cn2ccccc21` [BK02566] was tested, and the Increase in survival [1] was 2.8 days, the “Trypanocidal activity, cures” value [1] was 1/10 and the Increase in survival [3] was 4.7 days. For the same compound, the “Trypanocidal activity, cures” value [3] was 1/5, the Increase in survival [2] was 9.9 days and the “Trypanocidal activity, cures” value [2] was 5/10.

With `C[n+]1c(-c2ccc(C(N)=S)cc2)cn2ccccc21` [BK11743] the Increase in survival (6.65 mg/kg, subcutaneous) was 2.7 days, the “Trypanocidal activity, cures” value (6.65 mg/kg, subcutaneous) was 2/10 and the Increase in survival (13.3 mg/kg, subcutaneous) was 3.3 days. The “Trypanocidal activity, cures” value (13.3 mg/kg, subcutaneous) was 1/10, the Increase in survival (26 mg/kg, subcutaneous) was 4.0 days and the “Trypanocidal activity, cures” value (26 mg/kg, subcutaneous) was 3/15. For the same compound, the “Trypanocidal activity, cures” value (53 mg/kg, subcutaneous) was 5/5, the Increase in survival (106 mg/kg, subcutaneous) was 3.2 days and the “Trypanocidal activity, cures” value (106 mg/kg, subcutaneous) was 5/10. For the same compound, the Increase in survival (212 mg/kg, subcutaneous) was 17.0 days and the “Trypanocidal activity, cures” value (212 mg/kg, subcutaneous) was 4/5.

`C=CC[n+]1c(-c2ccc(C=NNC(=N)N)cc2)cn2ccccc21` [BK11770] was tested, and the “Trypanocidal activity, cures” value (13.3 mg/kg, subcutaneous) was 5/5.

In the case of `C[n+]1c(-c2ccc(C=NNC(=N)N)cc2)cn2cc(Cl)ccc21` [BK13069], the “Trypanocidal activity, cures” value (6.65 mg/kg, subcutaneous) is reported as 5/5.
